pIC50: −log10 of the molar value.
tested on: not listed separately; experiment: Cytotoxicity against mouse BA/F3 cells transfected with wild-type Bcr-Abl; conditions: BaF3

In order of rising pIC50:
1. CP(C)(=O)c1ccc(Nc2ncnc3c2ncn3/C=C/c2cccc3[nH]ncc23)cc1  6.07
2. CCCP(=O)(CCC)c1ccc(Nc2ncnc3c2ncn3/C=C/c2c(C)cccc2C)cc1  6.54
3. CCCP(=O)(CCC)c1ccc(Nc2nc(C(C)C)nc3c2ncn3/C=C/c2c(C)cccc2C)cc1  6.91
4. Cc1cccc(C)c1/C=C/n1cnc2c(Nc3ccc(P(C)(C)=O)cc3)nc(N3CCN(C)CC3)nc21  7.13
5. Cc1cccc(C)c1/C=C/n1cnc2c(Nc3ccc(P(C)(C)=O)cc3)nc(Oc3cccnc3)nc21  7.45
6. COc1nc(Nc2ccc(P(C)(C)=O)cc2)c2ncn(/C=C/c3c(C)cccc3C)c2n1  7.49

tested on: not listed separately; experiment: Volume of distribution at steady state in rat at 5 mg/kg, iv; type: ADME, organism-based; design: dose 5 mg/kg, route intravenous; conditions: in vivo, read-out: Vdss

In the case of `CCCP(=O)(CCC)c1ccc(Nc2ncnc3c2ncn3/C=C/c2c(C)cccc2C)cc1`, the Vd was 2.7 L/kg.

tested on: not listed separately; experiment: Half life in rat at 5 mg/kg, iv; type: ADME, organism-based; design: dose 5 mg/kg, route intravenous; conditions: in vivo

Compound `CCCP(=O)(CCC)c1ccc(Nc2ncnc3c2ncn3/C=C/c2c(C)cccc2C)cc1` has a half-life of 1.2 h.

tested on: K562; experiment: Cytotoxicity against human K562 cells transfected with wild-type Bcr-Abl; conditions: not given

In order of falling pIC50:
1. Cc1cccc(C)c1/C=C/n1cnc2c(Nc3ccc(P(C)(C)=O)cc3)nc(Oc3cccnc3)nc21  8.07
2. Cc1cccc(C)c1/C=C/n1cnc2c(Nc3ccc(P(C)(C)=O)cc3)nc(N3CCN(C)CC3)nc21  7.63
3. COc1nc(Nc2ccc(P(C)(C)=O)cc2)c2ncn(/C=C/c3c(C)cccc3C)c2n1  7.28
4. CCCP(=O)(CCC)c1ccc(Nc2nc(C(C)C)nc3c2ncn3/C=C/c2c(C)cccc2C)cc1  6.94
5. CP(C)(=O)c1ccc(Nc2ncnc3c2ncn3/C=C/c2cccc3[nH]ncc23)cc1  6.45
6. CCCP(=O)(CCC)c1ccc(Nc2ncnc3c2ncn3/C=C/c2c(C)cccc2C)cc1  6.43

target: Tyrosine-protein kinase ABL1 (Homo sapiens, UniProt P00519); conditions: not given
Sequence (P00519 whole entry): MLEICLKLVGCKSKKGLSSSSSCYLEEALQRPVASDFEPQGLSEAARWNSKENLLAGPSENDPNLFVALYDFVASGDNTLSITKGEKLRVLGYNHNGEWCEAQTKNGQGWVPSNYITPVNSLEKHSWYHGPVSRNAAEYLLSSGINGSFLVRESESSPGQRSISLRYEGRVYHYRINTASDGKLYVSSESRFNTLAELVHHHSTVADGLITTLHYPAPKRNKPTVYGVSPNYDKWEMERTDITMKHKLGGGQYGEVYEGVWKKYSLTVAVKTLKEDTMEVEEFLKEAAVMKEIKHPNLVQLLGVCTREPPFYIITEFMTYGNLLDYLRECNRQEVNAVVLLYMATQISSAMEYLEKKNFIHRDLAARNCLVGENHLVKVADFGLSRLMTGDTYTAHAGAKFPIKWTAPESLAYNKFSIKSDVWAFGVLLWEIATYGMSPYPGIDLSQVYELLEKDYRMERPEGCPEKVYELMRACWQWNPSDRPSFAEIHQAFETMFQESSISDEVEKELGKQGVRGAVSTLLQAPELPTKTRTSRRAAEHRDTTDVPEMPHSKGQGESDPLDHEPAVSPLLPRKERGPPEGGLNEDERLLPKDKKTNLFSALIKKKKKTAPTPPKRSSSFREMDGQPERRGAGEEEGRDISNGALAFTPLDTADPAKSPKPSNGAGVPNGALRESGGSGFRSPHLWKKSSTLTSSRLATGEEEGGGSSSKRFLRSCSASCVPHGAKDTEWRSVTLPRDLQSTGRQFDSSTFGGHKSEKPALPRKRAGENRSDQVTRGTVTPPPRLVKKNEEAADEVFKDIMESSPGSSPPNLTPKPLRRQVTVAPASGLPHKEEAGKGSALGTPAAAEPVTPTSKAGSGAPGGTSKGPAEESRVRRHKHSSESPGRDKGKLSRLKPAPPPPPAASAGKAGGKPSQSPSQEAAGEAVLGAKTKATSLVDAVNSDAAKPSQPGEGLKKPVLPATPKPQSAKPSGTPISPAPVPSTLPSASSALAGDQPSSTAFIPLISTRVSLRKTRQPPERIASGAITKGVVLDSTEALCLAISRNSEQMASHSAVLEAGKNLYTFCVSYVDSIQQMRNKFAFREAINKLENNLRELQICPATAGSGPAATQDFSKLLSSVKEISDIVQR

In order of falling pIC50:
1. Cc1cccc(C)c1/C=C/n1cnc2c(Nc3ccc(P(C)(C)=O)cc3)nc(Oc3cccnc3)nc21  9.30
2. COc1nc(Nc2ccc(P(C)(C)=O)cc2)c2ncn(/C=C/c3c(C)cccc3C)c2n1  8.74
3. Cc1cccc(C)c1/C=C/n1cnc2c(Nc3ccc(P(C)(C)=O)cc3)nc(N3CCN(C)CC3)nc21  8.17

target: Proto-oncogene tyrosine-protein kinase Src (Homo sapiens, UniProt P12931); experiment: Inhibition of human Src kinase by TR-FRET assay; conditions: not given
Sequence (P12931 2-536 limits assumed): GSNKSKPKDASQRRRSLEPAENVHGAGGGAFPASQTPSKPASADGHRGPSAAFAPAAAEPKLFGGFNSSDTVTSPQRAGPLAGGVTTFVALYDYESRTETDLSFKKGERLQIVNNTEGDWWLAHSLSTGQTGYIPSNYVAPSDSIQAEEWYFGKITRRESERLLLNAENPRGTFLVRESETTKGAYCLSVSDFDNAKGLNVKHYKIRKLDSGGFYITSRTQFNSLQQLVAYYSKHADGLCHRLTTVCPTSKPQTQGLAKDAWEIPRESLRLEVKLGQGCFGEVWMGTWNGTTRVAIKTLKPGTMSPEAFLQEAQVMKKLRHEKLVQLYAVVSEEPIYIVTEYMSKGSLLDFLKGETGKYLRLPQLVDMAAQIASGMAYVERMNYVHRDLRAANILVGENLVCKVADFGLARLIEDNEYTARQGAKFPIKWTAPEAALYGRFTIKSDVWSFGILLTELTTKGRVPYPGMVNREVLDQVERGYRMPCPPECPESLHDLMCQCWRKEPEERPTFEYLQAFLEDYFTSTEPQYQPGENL

`Cc1cccc(C)c1/C=C/n1cnc2c(Nc3ccc(P(C)(C)=O)cc3)nc(Oc3cccnc3)nc21` and `COc1nc(Nc2ccc(P(C)(C)=O)cc2)c2ncn(/C=C/c3c(C)cccc3C)c2n1` cannot be ordered by pIC50: greater than 9.34 for the first, greater than 9.34 for the second.

Compound `Cc1cccc(C)c1/C=C/n1cnc2c(Nc3ccc(P(C)(C)=O)cc3)nc(N3CCN(C)CC3)nc21` has a pIC50 greater than 9.64.

tested on: not listed separately; experiment: Oral bioavailability in rat at 5 mg/kg; type: ADME, organism-based; conditions: in vivo

In the case of `CCCP(=O)(CCC)c1ccc(Nc2ncnc3c2ncn3/C=C/c2c(C)cccc2C)cc1`, the bioavailability was 0%.

tested on: not listed separately; experiment: Cmax in rat at 5 mg/kg, iv; type: ADME, organism-based; design: dose 5 mg/kg, route intravenous; conditions: in vivo

`CCCP(=O)(CCC)c1ccc(Nc2ncnc3c2ncn3/C=C/c2c(C)cccc2C)cc1` showed a Cmax of 5.14 µg/mL.
